Patent US11759462B2, “Spirocyclic compounds as tryptophan hydroxylase inhibitors” (priority 2013, dated 2023)
Values joined by “and” are separate entries in the source; they are usually repeats but may differ in a detail not shown here. Equal values may be shown once.

What follows are compounds tested against T1, Recombinant human TPH1 (MBP tagged) (Homo sapiens, UniProt P17752) (assay: TPH1 in vitro inhibition assay (kinetic fluorescence)). Details: TPH1 Range (TPH1 inhibition IC50).
T1 construct: cloning full length human TPH1 cDNA in to a bacterial pMAL-c5E expression vector; made in house; host or cells: E. coli BL21 (DE3)
T1 sequence (P17752 1-444): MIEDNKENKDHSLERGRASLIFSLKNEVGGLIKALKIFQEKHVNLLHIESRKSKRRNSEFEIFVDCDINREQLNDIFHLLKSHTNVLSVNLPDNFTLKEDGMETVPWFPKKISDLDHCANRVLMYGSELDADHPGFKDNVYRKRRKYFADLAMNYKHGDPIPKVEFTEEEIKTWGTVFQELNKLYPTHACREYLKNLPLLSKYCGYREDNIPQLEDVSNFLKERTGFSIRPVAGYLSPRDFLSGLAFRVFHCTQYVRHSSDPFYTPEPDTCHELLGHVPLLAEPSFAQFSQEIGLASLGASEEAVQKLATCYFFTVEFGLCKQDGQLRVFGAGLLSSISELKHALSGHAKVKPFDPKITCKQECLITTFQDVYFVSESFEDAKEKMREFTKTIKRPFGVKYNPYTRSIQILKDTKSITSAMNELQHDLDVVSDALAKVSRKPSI
Format: biochemical
Summary of the method: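 Final mix: 15 nM MBP-TPH1, 30 μM Trp, 36 μM 6-methyltetrahydropterin, 25 μM ferrous ammonium sulfate, 50 mM MES pH 7.1, 1% DMSO, room temperature.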

| SMILES | IC50 |
| --- | --- |
| Cc1cc(-c2cc(Cl)ccc2[C@@H](Oc2cc(N3CCC4(CC3)CN[C@H](C(=O)O)C4)nc(N)n2)C(F)(F)F)ccc1Cl [Example 34at, (S)-8-(2-amino-6-((R)-1-(4′,5-dichloro-3′-methyl-[1,1′-biphenyl]-2-yl)-2,2,2-trifluoroethoxy)pyrimidin-4-yl)-2,8-diazaspiro[4.5]decane-3-carboxylic acid] | 50 to 300 nM |
| CN(C)S(=O)(=O)c1cccc(-c2cc(Cl)ccc2[C@@H](Oc2cc(N3CCC4(CC3)CN[C@H](C(=O)O)C4)nc(N)n2)C(F)(F)F)c1 [Example 34cl, (S)-8-(2-amino-6-((R)-1-(5-chloro-3′-(N,N-dimethylsulfamoyl)-[1,1′-biphenyl]-2-yl)-2,2,2-trifluoroethoxy)pyrimidin-4-yl)-2,8-diazaspiro[4.5]decane-3-carboxylic acid] | 50 to 300 nM |

Same assay, conditions: read-out: TPH1 Range (TPH1 inhibition IC50)

| SMILES | IC50 |
| --- | --- |
| Cc1ccn(-c2cc(-c3ccc(OCc4ccccc4)c(F)c3)ccc2[C@@H](Oc2cc(N3CCC4(CC3)CN[C@H](C(=O)O)C4)nc(N)n2)C(F)(F)F)n1 [Example 1bx, (S)-8-(2-amino-6-((R)-1-(4′-(benzyloxy)-3′-fluoro-3-(3-methyl-1H-pyrazol-1-yl)-[1,1′-biphenyl]-4-yl)-2,2,2-trifluoroethoxy)pyrimidin-4-yl)-2,8-diazaspiro[4.5]decane-3-carboxylic acid] | < 50 nM |
| CC(C)Oc1ccc(-c2cc(Cl)ccc2[C@@H](Oc2cc(N3CCC4(CC3)CN[C@H](C(=O)O)C4)nc(N)n2)C(F)(F)F)cc1Cl [Example 34ak, (S)-8-(2-amino-6-((R)-1-(3′,5-dichloro-4′-isopropoxy-[1,1′-biphenyl]-2-yl)-2,2,2-trifluoroethoxy)pyrimidin-4-yl)-2,8-diazaspiro[4.5]decane-3-carboxylic acid] | 50 to 300 nM |
| Nc1nc(O[C@H](c2ccc(Cl)cc2-c2ccccc2N)C(F)(F)F)cc(N2CCC3(CC2)CNC(C(=O)O)C3)n1 (stereo partly drawn) [Example 34d, 8-(2-amino-6-((R)-1-(2′-amino-5-chloro-[1,1′-biphenyl]-2-yl)-2,2,2-trifluoroethoxy)pyrimidin-4-yl)-2,8-diazaspiro[4.5]decane-3-carboxylic acid] | 50 to 300 nM |
| CCOc1cc(F)cc(-c2ccc([C@@H](Oc3cc(N4CCC5(CC4)CN[C@H](C(=O)O)C5)nc(N)n3)C(F)(F)F)c(-n3ccc(C)n3)c2)c1 [Example 1ay, (S)-8-(2-amino-6-((R)-1-(3′-ethoxy-5′-fluoro-3-(3-methyl-1H-pyrazol-1-yl)-[1,1′-biphenyl]-4-yl)-2,2,2-trifluoroethoxy)pyrimidin-4-yl)-2,8-diazaspiro[4.5]decane-3-carboxylic acid] | < 50 nM and 50 to 300 nM |
| Nc1nc(O[C@H](c2ccc(Br)cc2N2CCNCC2)C(F)(F)F)cc(N2CCC3(CC2)CN[C@H](C(=O)O)C3)n1 [Example 36d, (S)-8-(2-amino-6-((R)-1-(4-bromo-2-(piperazin-1-yl)phenyl)-2,2,2-trifluoroethoxy)pyrimidin-4-yl)-2,8-diazaspiro[4.5]decane-3-carboxylic acid] | 3000 to 10000 nM |
| COc1cc(F)cc(-c2ccc([C@@H](Oc3cc(N4CCC5(CC4)CN[C@H](C(=O)O)C5)nc(N)n3)C(F)(F)F)cc2)c1 [Example 55ao, (S)-8-(2-amino-6-((R)-2,2,2-trifluoro-1-(3′-fluoro-5′-methoxy-[1,1′-biphenyl]-4-yl)ethoxy)pyrimidin-4-yl)-2,8-diazaspiro[4.5]decane-3-carboxylic acid] | 50 to 300 nM |
| Cc1ccn(-c2cc(-c3ccc(C(F)(F)F)c(Cl)c3)ccc2[C@@H](Oc2cc(N3CCC4(CC3)CN[C@H](C(=O)O)C4)nc(N)n2)C(F)(F)F)n1 [Example 1bl, (S)-8-(2-amino-6-((R)-1-(3′-chloro-3-(3-methyl-1H-pyrazol-1-yl)-4′-(trifluoromethyl)-[1,1′-biphenyl]-4-yl)-2,2,2-trifluoroethoxy)pyrimidin-4-yl)-2,8-diazaspiro[4.5]decane-3-carboxylic acid] | < 50 nM |
| Nc1nc(O[C@H](c2ccc(-c3ccc4nnccc4c3)cc2)C(F)(F)F)cc(N2CCC3(CC2)CN[C@H](C(=O)O)C3)n1 [Example 55dp, (S)-8-(2-amino-6-((R)-1-(4-(cinnolin-6-yl)phenyl)-2,2,2-trifluoroethoxy)pyrimidin-4-yl)-2,8-diazaspiro[4.5]decane-3-carboxylic acid] | < 50 nM |
| Nc1nc(O[C@H](c2ccc(-c3cccnc3)cc2)C(F)(F)F)cc(N2CCC3(CC2)CN[C@H](C(=O)O)C3)n1 [Example 55aw, (S)-8-(2-amino-6-((R)-2,2,2-trifluoro-1-(4-(pyridin-3-yl)phenyl)ethoxy)pyrimidin-4-yl)-2,8-diazaspiro[4.5]decane-3-carboxylic acid] | 300 to 3000 nM |
| Cc1ccn(-c2ccc(-c3ccc(Cl)cc3)cc2[C@@H](Oc2cc(N3CCC4(CC3)CN[C@H](C(=O)O)C4)nc(N)n2)C(F)(F)F)n1 [Example 19q, (S)-8-(2-amino-6-((R)-1-(4′-chloro-4-(3-methyl-1H-pyrazol-1-yl)-[1,1′-biphenyl]-3-yl)-2,2,2-trifluoroethoxy)pyrimidin-4-yl)-2,8-diazaspiro[4.5] decane-3-carboxylic acid] | < 50 nM |
| COc1cc(-c2ccc([C@@H](Oc3cc(N4CCC5(CC4)CN[C@H](C(=O)O)C5)nc(N)n3)C(F)(F)F)cc2)ccc1C(=O)N1CCCC1 [Example 55r, (S)-8-(2-amino-6-((R)-2,2,2-trifluoro-1-(3′-methoxy-4′-(pyrrolidine-1-carbonyl)-[1,1′-biphenyl]-4-yl)ethoxy)pyrimidin-4-yl)-2,8-diazaspiro[4.5]decane-3-carboxylic acid] | 50 to 300 nM |
| CCCc1ccc(-c2cccc(S(C)(=O)=O)c2)c([C@@H](Oc2cc(N3CCC4(CC3)CN[C@H](C(=O)O)C4)nc(N)n2)C(F)(F)F)c1 [Example 49, (S)-8-(2-Amino-6-((R)-2,2,2-trifluoro-1-(3′-(methylsulfonyl)-4-propyl-[1,1′-biphenyl]-2-yl)ethoxy)pyrimidin-4-yl)-2,8-diazaspiro[4.5]decane-3-carboxylic acid] | < 50 nM |
| Nc1nc(O[C@H](c2ccc(-c3ccccc3CO)cc2)C(F)(F)F)cc(N2CCC3(CC2)CN[C@H](C(=O)O)C3)n1 [Example 55bu, (S)-8-(2-amino-6-((R)-2,2,2-trifluoro-1-(2′-(hydroxymethyl)-[1,1′-biphenyl]-4-yl)ethoxy)pyrimidin-4-yl)-2,8-diazaspiro[4.5]decane-3-carboxylic acid] | 300 to 3000 nM |
| CNC(=O)c1ccc(-c2ccc([C@@H](Oc3cc(N4CCC5(CC4)CN[C@H](C(=O)O)C5)nc(N)n3)C(F)(F)F)cc2)cc1 [Example 55dg, (S)-8-(2-amino-6-((R)-2,2,2-trifluoro-1-(4′-(methylcarbamoyl)-[1,1′-biphenyl]-4-yl)ethoxy)pyrimidin-4-yl)-2,8-diazaspiro[4.5]decane-3-carboxylic acid] | 50 to 300 nM |
| Nc1nc(O[C@H](c2ccc(-c3ccc(Cl)cc3)cc2)C(F)(F)F)cc(N2CCC3(CC2)CN[C@H](C(=O)O)C3)n1 [Example 55cy, (S)-8-(2-amino-6-((R)-1-(4′-chloro-[1,1′-biphenyl]-4-yl)-2,2,2-trifluoroethoxy)pyrimidin-4-yl)-2,8-diazaspiro[4.5]decane-3-carboxylic acid] | 300 to 3000 nM |
| CCc1cc(-c2ccc3ncc(F)cc3c2)ccc1[C@@H](Oc1cc(N2CCC3(CC2)CN[C@H](C(=O)O)C3)nc(N)n1)C(F)(F)F [Example 59d, (S)-8-(2-amino-6-((R)-1-(2-ethyl-4-(3-fluoroquinolin-6-yl)phenyl)-2,2,2-trifluoroethoxy)pyrimidin-4-yl)-2,8-diazaspiro[4.5]decane-3-carboxylic acid] | 50 to 300 nM |

These compounds were tested on jejunal mucosal 5-HT in mice (C57 BL6) (assay: Intestinal 5-HT depletion assay (Example B, single 150 mg/kg oral dose)). Details: one day after oral administration of a single 150 mg/kg dose, P-value class (ANOVA).
Format: in vivo, mouse
Protocol: The efficacy of the TPH1 inhibitors of the invention was assessed for the ability to decrease intestinal serotonin concentration in mice. Mice (C57 BL6) were administered a single 150 mg/kg dose of test article by oral gavage. Each animal was euthanized by exsanguination under isoflurane anesthesia. Jejunal intestinal mucosa was isolated and homogenized in 300 μL of a buffer containing 0.3M trichloroacetic acid, 0.1M sodium acetate, 10 mM EDTA, 20 mM sodium bisulfate and 50 mM ascorbic acid. Following centrifugation the 5-HT levels in the supernatants were measured by HPLC. The remaining mucosal pellet was solubilized overnight at 37° C. in a 0.1% sodium dodecyl sulfate buffer in 0.1N NaOH followed by determination of protein concentrations using a BCA protein assay (Pierce, Rockford, Ill. 5-HT levels were normalized to protein and data were expressed as mean percent reduction of mucosal 5-HT levels relative to vehicle control SEM (percent 5-HT reduction). All animal studies were carried out with protocols approved by the Institutional Animal Care and Use Committee.
P-values, indicating statistical significance of the data (ANOVA) are provided in the table: * refers to P<0.05, ** refers to P<0.01, *** refers to P<0.005, and refers to P<0.0005.

| SMILES | Efficacy (statistical significance of reduction of mucosal 5-HT concentrations relative to vehicle) |
| --- | --- |
| CCOC(=O)c1ccc([C@@H](Oc2cc(N3CCC4(CC3)CN[C@H](C(=O)OCC)C4)nc(N)n2)C(F)(F)F)c(-n2ccc(C)n2)c1 [Example 63bi, (S)-ethyl 8-(2-amino-6-((R)-1-(4-(ethoxycarbonyl)-2-(3-methyl-1H-pyrazol-1-yl)phenyl)-2,2,2-trifluoroethoxy)pyrimidin-4-yl)-2,8-diazaspiro[4.5]decane-3-carboxylate] | ** (** refers to P<0.01) |
